Results reported in US20030229451A1, “Methods and systems for analyzing complex biological systems” (priority 2001, published 2003).

What was measured:
Arabidopsis thaliana [1] = assay: MOA1 gene expression profiling (22,000 gene array); conditions: for Regulated Genes: Down / Regulated Genes: Up: 1 hr, p < 0.5; for No. of Lethal Genes Altered: genes essential for plant growth and development
Arabidopsis thaliana [2] = assay: MOA1 biochemical (metabolite) profiling by LC-MS and GC-MS
[3] = system: Arabidopsis thaliana plants; assay: SOA1 phenotypic analysis of herbicide-treated Arabidopsis (MIC, Tmic, leaf traits); assay type: in vivo; conditions: for characteristic morphological symptoms: herbicide-treated Arabidopsis; for leafCurling Dev. / leafTwisting Dev. / leafWidth Dev. / matureLeafAnthocyanins Dev. / matureLeafChlorosis Dev. / matureLeafNecrosis Dev. / newLeafAnthocyanins Dev. / newLeafChlorosis Dev. / newLeafNecrosis Dev. / pointedLeaves Dev.: numeric value standardized to mock treated; for tMic Dev.: time to full range of symptoms at MIC, coded
Magnaporthe grisea = assay type: cell-based
[4] = system: Saccharomyces cerevisiae wild type strain BY4743; assay: AF1 metabolite analysis (GC-MS, LC-MS) of yeast cells treated with antifungal drugs; assay type: cell-based; conditions: P < 0.1; 2x MIC, two hours
[5] = system: Saccharomyces cerevisiae wild type strain BY4743; assay: AF1 combined gene expression and metabolite mapping to reactions and pathways (KEGG); assay type: cell-based
From the text: The pathway score indicates how meaningful the mapping is, or how likely it is to be correctly indicative of the pathway involved in the perturbation under examination. The method provides a pathway score based on perturbation levels of genes and/or compounds and the information content of each gene and/or compound in the pathway, i.e., a pathway score indicates the extent to which other pathways are mapped to a gene/compound. For example, imagine that two genes are perturbed in a particular experiment. One gene maps to only one pathway, giving a high degree of probability that the perturbed pathway is the one identified in the mapping. The second gene maps to three pathways. In the later example, there is only one-third the probability that the pathway identified in the mapping is the one perturbed. The present invention provides a method for calculating the pathway scores, so that more weight is given to a score of a gene or compound that maps to only one pathway than to a score of a gene or compound that maps to multiple pathways. […] Where n=the total number of genes in the pathway; ipath—count=the number of pathways containing a gene; and j=the number of genes in the pathway that are perturbed. Another factor to be considered when weighting a pathway score is the degree of perturbation. Degree of perturbation can be calculated, for example, based on a number of standard deviations from a norm, and included in an equation such as the one shown above, so that not only the number of pathways is taken into account, but also accounts for the amount of gene transcript or compound present as compared to a control. The data were then combined to determine the number of reactions showing an enzyme and at least one compound perturbed, and to determine the number of pathways having at least one enzyme and one perturbed compound perturbed. The results of the analysis are represented in Tables 16 and 17, and were difficult to interpret, illustrating that the ability to draw conclusions from compound mapping to pathways is limited when absent additional data.

[6] = system: N-starved Arabidopsis plants; conditions: nitrate addition to N-starved plants; cited from earlier work
[7] = concentrations insufficient to inhibit growth

SMILES | Regulated Genes: Down (Arabidopsis thaliana [1]) | Regulated Genes: Up (Arabidopsis thaliana [1]) | No. of Lethal Genes Altered (Arabidopsis thaliana [1]) | Number of Metabolites Changed: (unknown #) (Arabidopsis thaliana [2]; 20 min, p < 0.05) | Number of Metabolites Changed: Total # (Arabidopsis thaliana [2]; 20 min, p < 0.05) | Number of Metabolites Changed: (unknown #) (Arabidopsis thaliana [2]; 20 min, p < 0.11) | Number of Metabolites Changed: Total # (Arabidopsis thaliana [2]; 20 min, p < 0.11) | Number of Metabolites Changed: (unknown #) (Arabidopsis thaliana [2]; 1 hr, p < 0.05) | Number of Metabolites Changed: Total # (Arabidopsis thaliana [2]; 1 hr, p < 0.05) | Number of Metabolites Changed: (unknown #) (Arabidopsis thaliana [2]; 1 hr, p < 0.11) | Number of Metabolites Changed: Total # (Arabidopsis thaliana [2]; 1 hr, p < 0.11) | leafCurling Dev. [3] | leafTwisting Dev. [3] | leafWidth Dev. [3] | matureLeafAnthocyanins Dev. [3] | matureLeafChlorosis Dev. [3] | matureLeafNecrosis Dev. [3] | newLeafAnthocyanins Dev. [3] | newLeafChlorosis Dev. [3] | newLeafNecrosis Dev. [3] | further results
COC(=O)NS(=O)(=O)c1ccc(N)cc1 [Asulam] | 7 | 80 | 5 | 3 | 9 | 5 | 14 | 7 | 10 | 11 | 18 | – | – | – | – | – | – | – | – | – | –
COc1nc(C)nc(NC(=O)NS(=O)(=O)c2ccccc2Cl)n1 [Chlorsulfuron] | 109 | 97 | 8 | 4 | 9 | 6 | 15 | 3 | 5 | 13 | 23 | 1 | 1 | −1 | 3 | 2 | 0 | 0 | 2 | 0 | characteristic morphological symptoms [3]: anthocyanin accumulation in the older leaves accompanied by chlorosis of the newly emerging leaves; pointedLeaves Dev. [3]: 0; tMic Dev. [3]: 2
CP(=O)(O)CCC(N)C(=O)O (stereo not drawn) [Glufosinate] | 54 | 296 | 10 | 25 | 33 | 33 | 48 | 4 (4) | 4 (4) | 9 (9) | 9 (9) | 2 | 1 | −2 | 0 | 3 | 0 | 0 | 3 | 0 | characteristic morphological symptoms [3]: Chlorosis and leaf curling; pointedLeaves Dev. [3]: 1; tMic Dev. [3]: 1; nitrogen source utilization by M. grisea (Magnaporthe grisea; in the presence of compound): only able to utilize glutamine and glutamate as nitrogen sources
O=C(O)CNCP(=O)(O)O [Glyphosate] | – | – | – | 2 | 4 | 9 | 13 | 9 | 16 | 24 | 46 | 0 | 0 | 0 | 3 | 1 | 3 | 1 | 2 | 0 | characteristic morphological symptoms [3]: anthocyanin accumulation in the older leaves accompanied by chlorosis of the newly emerging leaves; pointedLeaves Dev. [3]: 1; tMic Dev. [3]: 2; growth results for Tiers 3 and 4 compared to Unknown 4 (Magnaporthe grisea; 250 μg/ml): nearly identical; growth inhibition of M. grisea (Magnaporthe grisea; 1.0 mg/ml): remediated by inclusion of aromatic amino acids; tyrosine level (Arabidopsis thaliana [2]; relative to the control): decreased
CS(=O)(=O)c1cc(C(F)(F)F)ccc1C(=O)c1cnoc1C1CC1 [Isoxaflutole] | 370 | 143 | 15 | 29 | 45 | 39 | 62 | 13 | 14 | 21 | 25 | – | – | – | – | – | – | – | – | – | growth of M. grisea in minimal media (Magnaporthe grisea; [7]): unaffected; growth of M. grisea in minimal plus tyrosine media (Magnaporthe grisea; [7]): inhibited; phenylalanine level (Arabidopsis thaliana [2]; relative to the control): up-regulated; tyrosine level (Arabidopsis thaliana [2]; relative to the control): up-regulated; Alpha-tocopherol level (Arabidopsis thaliana [2]; relative to the control, early time points): not significantly changed
CC(=O)N1CCN(c2ccc(OCC3COC(Cn4ccnc4)(c4ccc(Cl)cc4Cl)O3)cc2)CC1 (stereo not drawn) [Ketoconazole] | – | – | – | – | – | – | – | – | – | – | – | – | – | – | – | – | – | – | – | – | # Compounds perturbed [4]: 15; # Reactions Having an Enzyme and at Least One Compound Perturbed [5]: 21; Number Of Pathways Having at Least One Enzyme and One Compound Perturbed (# Reactions) [5]: 24
CCc1cccc(C)c1N(C(=O)CCl)C(C)COC (stereo not drawn) [Metolachlor] | – | – | – | 25 | 38 | 34 | 54 | 11 | 18 | 22 | 45 | 2 | 1 | −1 | 0 | 0 | 3 | 0 | 0 | 3 | pointedLeaves Dev. [3]: 1; tMic Dev. [3]: 2
O=C(O)c1ccccc1C(=O)Nc1cccc2ccccc12 [Naptalam] | 47 | 50 | 3 | 11 | 28 | 16 | 39 | 9 | 13 | 23 | 46 | – | – | – | – | – | – | – | – | – | –
O=[N+]([O-])O [Nitrate] | – | – | – | – | – | – | – | – | – | – | – | – | – | – | – | – | – | – | – | – | Nitrate Regulation of Glutamate synthetase [6]: ↑; Nitrate Regulation of Glutamine synthetase (2) [6]: ↑; Nitrate Regulation of MADs Box (2) [6]: ↓; Nitrate Regulation of MYB transcription factor [6]: ↑; Nitrate Regulation of Malate Dehydrogenase [6]: ↑; Nitrate Regulation of Nitrate transporter [6]: ↑; Nitrate Regulation of Phosphate transporter [6]: ↑; Nitrate Regulation of Transaldolase [6]: ↑; Nitrate Regulation of Transketolase [6]: ↑
C[n+]1ccc(-c2cc[n+](C)cc2)cc1 [Paraquat] | – | – | – | 5 | 9 | 9 | 14 | 15 | 22 | 31 | 50 | 2 | 0 | −1 | 0 | 1 | 4 | 0 | 1 | 4 | characteristic morphological symptoms [3]: rapid and widespread leaf necrosis; pointedLeaves Dev. [3]: 1; tMic Dev. [3]: 2
